Results on 3 compounds are retold here after US20250161184A1, “NOVEL USE” (DSM IP Assets B.V., priority 2022, published 2025).

The structures appear in SMILES notation. Entries after “also recorded” stand apart in the source; their conditions may differ.

The assay relates to Normal human dermal fibroblasts. Put plainly: in vitro dermal fibroblast collagen assay (collagen 1 immunolabeling, flow cytometry). The class given is cell-based. The note with it: for Collagen 1 expression relative to untreated (%): 72 hours treatment, mean, n = 4, untreated = 100%; for effect on collagen type 1 (result in words): normal human dermal fibroblasts, 72 hours, several concentrations. The protocol: The neutral core human milk oligosaccharides LNT and LNnT were evaluated for their effect on collagen type 1. This was done using an in vitro dermal fibroblast collagen assay. […] For comparative reasons, also another human milk oligosaccharide was tested, i.e. 6′-silalyllactose (6′SL).
Normal human dermal fibroblasts were seeded in cell culture medium (Dulbecco's Modified Eagle Medium supplemented with 10% serum and 1% antibiotics) and allowed to adhere in a humidified cell incubator maintaining 37° C. and 5% CO2. Afterwards, the cells were starved with culture medium without serum for 16-24 hours to synchronize the cells their cell cycle. The starvation medium was removed and cell culture medium+LNT or LNnT respectively 6′SL at various concentrations was added to the cells. The cells were treated for 72 hours. The cells were then fixated and immunolabeled with antibodies specific for collagen 1. These labeled cells were analyzed using flow cytometry and compared to the untreated ones (medium without LNT respectively LNnT or 6′SL).

In the case of `CC(=O)N[C@H]1[C@H](O[C@H]2[C@@H](O)[C@@H](CO)O[C@@H](O[C@H]3[C@H](O)[C@@H](O)C(O)O[C@@H]3CO)[C@@H]2O)O[C@H](CO)[C@@H](O[C@@H]2O[C@H](CO)[C@H](O)[C@H](O)[C@H]2O)[C@@H]1O` (mixture of isomers) [LNnT, lacto-N-neotetraose], the “effect on collagen type 1 (result in words)” value (“effect” below) is “most active in inducing collagen synthesis; also recorded: increase collagen expression”. The “Collagen 1 expression relative to untreated (%)” value (0.05 μM) was found to be 117%. In addition, where the note is “0.10 μM”, the “Collagen 1 expression relative to untreated (%)” value was found to be 129%. Further, the “Collagen 1 expression relative to untreated (%)” value (1.00 μM) came out at 167%. Moreover, the “Collagen 1 expression relative to untreated (%)” value (50 μM) is 172%. Also, the “Collagen 1 expression relative to untreated (%)” value (100 μM) was determined as 177%.
For `CC(=O)N[C@H]1[C@H]([C@H](O)[C@H](O)CO)O[C@@](OC[C@H]2O[C@@H](O[C@H]3[C@H](O)[C@@H](O)[C@H](O)O[C@@H]3CO)[C@H](O)[C@@H](O)[C@H]2O)(C(=O)O)C[C@@H]1O` [6′SL, 6′-silalyllactose, reference compound], the “effect” value is listed as “much smaller effect”. Besides, the “Collagen 1 expression relative to untreated (%)” value (0.10 μM) was 103%. Besides, the “Collagen 1 expression relative to untreated (%)” value (1.00 μM) stood at 121%. Further, under “50 μM”, the “Collagen 1 expression relative to untreated (%)” value came out at 100%.
Turning to `CC(=O)N[C@H]1[C@H](O[C@H]2[C@@H](O)[C@@H](CO)O[C@@H](O[C@H]3[C@H](O)[C@@H](O)C(O)O[C@@H]3CO)[C@@H]2O)O[C@H](CO)[C@@H](O)[C@@H]1O[C@@H]1O[C@H](CO)[C@H](O)[C@H](O)[C@H]1O` (stereo partly drawn) [LNT, lacto-N-tetraose], the “effect” value is recorded as “increase collagen expression”. Where the note is “0.50 μM”, the “Collagen 1 expression relative to untreated (%)” value is listed as 139%. For the same compound, the “Collagen 1 expression relative to untreated (%)” value (1.00 μM) was 159%. Further, the “Collagen 1 expression relative to untreated (%)” value (50 μM) is 164%. Further, the “Collagen 1 expression relative to untreated (%)” value (100 μM) worked out at 163%.
